From article PMC12041767 (Journal of immunology (Baltimore, Md. : 1950), 2025)
Where two headings read alike, the source gives them in different places.

Experiments:
[1] = test system: TCR KK50.4; assay type: cell-based; details: 100 μM peptide, median, n=3 with two technical replicates, Figure 3B, C
[2] = test system: TCR 6; assay: HLA-E*01:03 tetramer (TM) staining of TCR 6 transduced Jurkat cells; details: for Interaction of thermal exchanged HLA-E TM/peptide complex with TCR 6, in words: thermal exchanged HLA-E*01:03 TM staining on Jurkat TCR 6 cells, tested once, Figure 2C-E
[3] = molecular target: HLA-E*01:03 (Homo sapiens, UniProt P13747); assay type: binding; details: tested at least two times, median, Figure 1
[4] = test system: TCR KK50.4; assay: HLA-E*01:03 tetramer (TM) staining of TCR KK50.4 transduced Jurkat cells; details: for Interaction of thermal exchanged HLA-E TM/peptide complex with TCR KK50.4, in words: thermal exchanged HLA-E*01:03 TM staining on Jurkat TCR KK50.4 cells, tested once, Figure 2C
[5] = molecular target: T1, NKG2A/CD94 (Homo sapiens, UniProt P26715+Q13241); assay type: binding
[6] = test system: primary NKG2C+ NK cells; details: stimulation with HLA-E/peptide presenting cells, compared to other position 8 variants from clinical CMV isolates; cited from earlier work
[7] = molecular target: T1, NKG2A/CD94; details: cited from earlier work
[8] = S/P relative to positive control […] or […]
[9] = UV exchange 1 hr at 4°C, ELISA absorbance 450 nm
[10] = conventional HLA-E TMs folded with wildtype peptide, Figure 2B

T1 sequence (P26715 whole entry): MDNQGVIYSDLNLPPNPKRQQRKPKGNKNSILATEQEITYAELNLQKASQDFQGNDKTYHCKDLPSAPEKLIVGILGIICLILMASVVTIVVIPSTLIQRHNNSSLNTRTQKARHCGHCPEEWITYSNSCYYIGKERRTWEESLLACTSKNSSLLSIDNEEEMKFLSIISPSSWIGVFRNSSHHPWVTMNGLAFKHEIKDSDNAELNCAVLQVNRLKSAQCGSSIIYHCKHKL
T1 sequence (Q13241 whole entry): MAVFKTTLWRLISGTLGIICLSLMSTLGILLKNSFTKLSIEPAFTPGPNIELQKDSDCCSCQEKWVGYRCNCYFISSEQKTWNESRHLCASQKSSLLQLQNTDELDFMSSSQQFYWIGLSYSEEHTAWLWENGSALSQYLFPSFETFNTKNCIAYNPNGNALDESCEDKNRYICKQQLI

Question: With VMAPRTLIF as the sequence, how does the “TCR KK50.4 triple reporter activation, in words” value [1] read?
Answer: The value was “still induced TCR KK50.4 activation”.

Question: With VMAPRALIL as the sequence, how does the “Interaction of thermal exchanged HLA-E TM/peptide complex with TCR 6, in words” value [2] read?
Answer: Its value is “interacted”.

Question: With VLAPRTDLL [VLAPRTLLL Asp 7] as the sequence, how does the “Peptide binding affinity for HLA-E*01:03 (signal to positive, S/P, ratio), in words” value [3, 8] read?
Answer: The value was “could not bind”.

Question: Which “Peptide binding affinity for HLA-E*01:03 (signal to positive, S/P, ratio), in words” value [3, 8] does the source give for VLAPRTPLL [VLAPRTLLL Pro 7] here?
Answer: Its value is “strong binders (key: The S/P thresholds to define binders or strong binders are 0.08 and 0.18, respectively; The S/P thresholds to define binders or strong binders are 0.08 and 0.18, respectively)”.

Question: What does the source list for VMAPRTLIW?
Answer: Interaction of thermal exchanged HLA-E TM/peptide complex with TCR 6, in words [2]: not TCR 6; Interaction of thermal exchanged HLA-E TM/peptide complex with TCR KK50.4, in words [4]: recognized by TCR KK50.4

Question: With VMAARTLIL as the sequence, how does the “Interaction of thermal exchanged HLA-E TM/peptide complex with TCR KK50.4, in words” value [4] read?
Answer: Its value is “interacted”.

Question: Which “Peptide binding affinity for HLA-E*01:03 (signal to positive, S/P, ratio), in words” value [3, 8] does the source give for VLAPRRLLL [VLAPRTLLL Arg 6] here?
Answer: Its value is “could not bind”.

Question: What does the source list for VMAPRPLIL?
Answer: Interaction of thermal exchanged HLA-E TM/peptide complex with TCR 6, in words [2]: interacted; Peptide binding affinity for HLA-E*01:03 (signal to positive, S/P, ratio), in words [3, 9]: strong binders (The S/P thresholds to define binders or strong binders are 0.08 and 0.18, respectively)

Question: Which “Interaction of conventional HLA-E TM with TCR 6, in words” value [2, 10] does the source give for VLAPRTLLL [reference compound] here?
Answer: The value was “can interact”.

Question: What about the “Interaction of conventional HLA-E TM with TCR KK50.4, in words” value [4, 10] of the same sequence?
Answer: Its value is “could only interact with the HLA-E/[…] complex”.

Question: And the “Peptide binding affinity for HLA-E*01:03 (signal to positive, S/P, ratio), in words” value [3, 8]?
Answer: The value was “high affinity”.

Question: What about the “Interaction of conventional HLA-E TM with NKG2A/CD94, in words” value [5] of the same sequence?
Answer: Its value is “can interact”.

Question: For VLAPRTRLL [VLAPRTLLL Arg 7], which “Peptide binding affinity for HLA-E*01:03 (signal to positive, S/P, ratio), in words” value [3, 8] is on record?
Answer: Its value is “could not bind”.

Question: Which “Peptide binding affinity for HLA-E*01:03 (signal to positive, S/P, ratio), in words” value [3, 9] does the source give for VMAPRTPIL here?
Answer: Its value is “strong binders (The S/P thresholds to define binders or strong binders are 0.08 and 0.18, respectively)”.

Question: With VLAPRTLLA [VLAPRTLLL Ala 9] as the sequence, how does the “Peptide binding affinity for HLA-E*01:03 (signal to positive, S/P, ratio), in words” value [3, 8] read?
Answer: Its value is “could not bind”.

Question: With VLAPRPLLL [VLAPRTLLL Pro 6] as the sequence, how does the “Peptide binding affinity for HLA-E*01:03 (signal to positive, S/P, ratio), in words” value [3, 8] read?
Answer: Its value is “strong binders (key: The S/P thresholds to define binders or strong binders are 0.08 and 0.18, respectively; The S/P thresholds to define binders or strong binders are 0.08 and 0.18, respectively)”.

Question: For VLAPRDLLL [VLAPRTLLL Asp 6], which “Peptide binding affinity for HLA-E*01:03 (signal to positive, S/P, ratio), in words” value [3, 8] is on record?
Answer: Its value is “could not bind”.

Question: With VLAPRTLGL [VLAPRTLLL Gly 8] as the sequence, how does the “Peptide binding affinity for HLA-E*01:03 (signal to positive, S/P, ratio), in words” value [3, 8] read?
Answer: Its value is “could not bind”.

Question: For VMAPRTLFL, which “CD107a expression and cytokine secretion of primary NKG2C+ NK cells” value [6] is on record?
Answer: The value was “highest level of CD107a expression and cytokine secretion”.

Question: What about the “Level of NKG2A/CD94 signaling among VL9-peptides” value [7] of the same sequence?
Answer: Its value is “highest level of NKG2A/CD94 signaling”.
